Like-named read-outs stand apart in the source and are kept apart here.
Tests used:
EGFR kinase = target: T1, EGFR kinase (Homo sapiens, UniProt P00533); experiment: EGFR radiometric kinase assay; type: biochemical; details: 100 μM ATP, read-out: Inhibition activity, IC50 EGFR
T1 construct: EGFR kinase domain alone, Millipore; purchased Millipore
Description: (§1) The inhibitory activity against VEGFR2 or EGFR was determined by radiometric kinase assay. The experimental condition for VEGFR2 kinase assay was 6.25 ng of recombinant VEGFR2 kinase (VEGFR2 kinase domain alone, Millipore), 5 μg of substrate Poly(Glu-Tyr) (4:1, Sigma), kinase reaction buffer (20 mM MOPS pH 7.0, 1 mM EDTA, 5% glycerol, 0.01% Brij-35, 0.1% β-mercaptoethanol, 1 mg/mL BSA, 100 μM ATP, and 0.1 μCi per well [^33P] ATP (specific activity 3000 Ci/mmol, PerkinElmer)), and the test compound (diluted with 4% DMSO) or DMSO alone (as a control) in a final volume of 25 μL. Reactions were incubated at 30° C. for 30 min and stopped by adding 3% phosphoric acid, harvested onto a 96-well GF/B UniFilter (PerkinElmer) using a unifilter harvester (PerkinElmer), and counted with a TopCount microplate scintillation counter (PerkinElmer).
The experimental condition for EGFR kinase assay was 25 ng of EGFR kinase (EGFR kinase domain alone, Millipore), 3 μg of the substrate poly(Glu-Tyr), (Sigma), kinase reaction buffer (10 mM MOPS pH 7.0, 0.3 mM EDTA, 0.5% glycerol, 0.001% Brij-35, 10 mM MnCl2, 0.1 mg/ml BSA, 100 μM ATP, and 0.1 μCi per well [^33P]ATP (specific activity 3000 Ci/mmol, PerkinElmer)), and the test compound (diluted with 4% DMSO) or DMSO (as a control) in a final volume of 25 μL. Reactions were incubated at 30° C. for 30 min and stopped by adding 3% phosphoric acid, harvested onto a 96-well GF/B UniFilter (PerkinElmer) using a unifilter harvester (PerkinElmer), and counted with a TopCount microplate scintillation counter (PerkinElmer).
(§2) Results of inhibition activity against VEGFR2 and EGFR kinases by the selected compounds, which have IC50 values on B-Raf kinase <300 nM, are summarized in Table 6.

B-Raf kinase = target: T2, B-Raf kinase (Homo sapiens, UniProt P15056); experiment: B-Raf kinase assay ([33P] incorporation into MEK1(K97R)); type: biochemical; details: class symbols; 8 μM ATP; read-out: IC50 against B-Raf kinase
T2 construct: purchased Upstate Biotechnology
Description: (§3) Inhibition of kinase activity by a test compound disclosed herein was estimated by quantifying the amount of [^33P] incorporation of a substrate in the presence of the test compound. Standard assay conditions were 5 ng of recombinant B-Raf kinase (Upstate Biotechnology) with 500 ng MEK1(K97R) in assay buffer (8 μM ATP, 0.5 μCi [^33P]ATP (specific activity 3000 Ci/mmol, PerkinElmer), 50 mM Tris/HCl (pH7.5), and 1 mM EGTA, 1 mM Na3VO4, 1% 2-mercaptoethanol, 0.1% Brij 35, and 0.2 mg/ml BSA) in a final volume of 25 μL. Reactions were incubated at 30° C. for 30 min and stopped by adding 3% phosphoric acid, harvested onto a 96-well GF/B UniFilter (PerkinElmer) using a unifilter harvester (PerkinElmer), and counted with a TopCount microplate scintillation counter (PerkinElmer). The IC50 values of inhibitors were determined after carrying out assays at 3-fold serially diluted concentrations of each compound in duplication. The results were analyzed using linear regression software (GraphPad Prism 4; GraphPad Software Inc.).

C-Raf kinase = target: T3, C-Raf kinase (Homo sapiens, UniProt P04049); experiment: C-Raf kinase assay ([33P] incorporation into MEK1(K97R)); type: biochemical; details: class symbols; 8 μM ATP; read-out: IC50 against C-Raf kinase
T3 construct: purchased Upstate Biotechnology
Description: as §3, with “were 2” for “were 5”, “recombinant C-Raf” for “recombinant B-Raf”, “ng MEK1 (K97R)” for “ng MEK1(K97R)”, “μCi [^33P] ATP” for “μCi [^33P]ATP”, “mg/ml BSA), and the test compound (diluted with 4% DMSO) or DMSO alone (as a control)” for “mg/ml BSA)”

VEGFR2 kinase = target: T4, VEGFR2 kinase (Homo sapiens, UniProt P35968); experiment: VEGFR2 radiometric kinase assay; type: biochemical; details: given as bound; 100 μM ATP; read-out: Inhibition activity, IC50 VEGFR2
T4 construct: VEGFR2 kinase domain alone, Millipore; purchased Millipore
Description: as §1, §2

[1] = tested on: A375 melanoma cells and COLO205 colon cancer cells; experiment: Cell proliferation assay (CellTiter-96); type: cell-based; details: Homo sapiens; A375 or COLO205, 72 hours treatment; read-out: Cytotoxicity IC50 for A375 or COLO205
Description: The anti-proliferative activities of compounds of formula (I) against B-Raf(V600E) mutant human cancer cell lines, A375 melanoma cells and COLO205 colon cancer cells, were measured using the CellTiter™-96 assay kit (Promega) following the manufacturer's instructions. In brief, the cells were maintained in DMEM containing 10% FCS and incubated at 37° C. in 5% CO2 atmosphere. Cells were plated at a density of 2,000 cells/well on a 96-well plate and incubated for 24 h. Then, these cells were treated with different concentrations of the test compounds and incubated for another 72 hours. At the end of the incubation, CellTiter™-96 Aqueous One Solution Reagent (Promega) was added and incubated for another 4.0 hours. Cell viability was determined by measuring absorbance at 490 nm using EMax® microplate reader (Molecular Devices). Data were processed and analyzed using GraphPad Prism.

B-Raf(V600E) kinase = target: T5, B-Raf(V600E) kinase (Homo sapiens, UniProt P15056, V600E); experiment: B-Raf(V600E) kinase assay ([33P] incorporation into MEK1(K97R)); type: biochemical; details: class symbols; 8 μM ATP; read-out: IC50 against B-Raf(V600E) kinase
T5 construct: purchased Upstate Biotechnology
Description: as §3, with “B-Raf(V600E)” for “B-Raf”, “MEK1 (K97R)” for “MEK1(K97R)”, “[^33P] ATP” for “[^33P]ATP”, “BSA), and the test compound (diluted with 4% DMSO) or DMSO alone (as a control)” for “BSA)”

T5 sequence (P15056 whole entry V600E): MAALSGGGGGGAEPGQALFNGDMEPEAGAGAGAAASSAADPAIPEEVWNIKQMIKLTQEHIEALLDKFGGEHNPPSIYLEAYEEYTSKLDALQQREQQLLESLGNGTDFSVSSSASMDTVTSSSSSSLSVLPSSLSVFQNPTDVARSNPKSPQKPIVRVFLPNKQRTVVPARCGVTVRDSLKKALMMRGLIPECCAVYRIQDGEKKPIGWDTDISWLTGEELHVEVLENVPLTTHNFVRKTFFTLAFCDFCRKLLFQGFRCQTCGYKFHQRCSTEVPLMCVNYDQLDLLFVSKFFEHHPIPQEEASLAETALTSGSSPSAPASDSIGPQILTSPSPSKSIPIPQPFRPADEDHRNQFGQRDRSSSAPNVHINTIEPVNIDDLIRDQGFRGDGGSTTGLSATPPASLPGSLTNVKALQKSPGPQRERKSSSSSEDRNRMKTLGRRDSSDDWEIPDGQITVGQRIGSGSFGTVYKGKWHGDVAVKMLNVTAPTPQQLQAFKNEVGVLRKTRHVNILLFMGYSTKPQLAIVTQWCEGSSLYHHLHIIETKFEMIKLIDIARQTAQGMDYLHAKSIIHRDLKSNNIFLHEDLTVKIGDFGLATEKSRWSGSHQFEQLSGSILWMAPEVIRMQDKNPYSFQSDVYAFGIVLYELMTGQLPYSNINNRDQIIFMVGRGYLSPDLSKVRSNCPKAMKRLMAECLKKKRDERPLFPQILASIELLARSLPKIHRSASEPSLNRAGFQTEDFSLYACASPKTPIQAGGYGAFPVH
T4 sequence (P35968 834-1162 limits assumed): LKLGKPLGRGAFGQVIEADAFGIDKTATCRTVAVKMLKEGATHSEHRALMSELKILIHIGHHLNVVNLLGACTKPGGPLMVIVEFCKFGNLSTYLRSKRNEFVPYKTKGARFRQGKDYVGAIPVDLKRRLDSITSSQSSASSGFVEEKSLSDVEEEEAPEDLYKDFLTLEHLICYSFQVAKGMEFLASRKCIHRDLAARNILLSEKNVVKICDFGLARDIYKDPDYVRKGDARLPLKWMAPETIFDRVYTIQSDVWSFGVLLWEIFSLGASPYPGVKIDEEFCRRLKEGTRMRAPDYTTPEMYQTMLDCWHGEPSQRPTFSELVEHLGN
T3 sequence (P04049 whole entry): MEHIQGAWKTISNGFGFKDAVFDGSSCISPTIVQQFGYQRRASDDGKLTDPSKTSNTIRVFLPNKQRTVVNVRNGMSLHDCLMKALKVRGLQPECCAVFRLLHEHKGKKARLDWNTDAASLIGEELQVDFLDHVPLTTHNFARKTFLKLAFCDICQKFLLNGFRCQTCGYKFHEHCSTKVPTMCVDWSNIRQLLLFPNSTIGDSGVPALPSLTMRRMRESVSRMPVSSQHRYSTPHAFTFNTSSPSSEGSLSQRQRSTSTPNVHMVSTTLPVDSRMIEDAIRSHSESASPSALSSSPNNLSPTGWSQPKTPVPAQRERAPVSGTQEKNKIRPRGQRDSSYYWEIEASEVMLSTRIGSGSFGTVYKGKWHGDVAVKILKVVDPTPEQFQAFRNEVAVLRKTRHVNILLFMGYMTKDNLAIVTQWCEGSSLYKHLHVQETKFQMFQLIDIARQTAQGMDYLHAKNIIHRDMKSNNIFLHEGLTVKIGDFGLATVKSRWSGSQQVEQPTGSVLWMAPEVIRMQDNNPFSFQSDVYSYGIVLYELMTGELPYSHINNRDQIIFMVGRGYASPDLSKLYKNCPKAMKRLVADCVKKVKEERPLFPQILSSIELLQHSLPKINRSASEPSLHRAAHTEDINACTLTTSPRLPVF
T2 sequence (P15056 whole entry): as the sequence (P15056 whole entry V600E) above, with E600V counted along it
T1 sequence (P00533 712-979 limits assumed): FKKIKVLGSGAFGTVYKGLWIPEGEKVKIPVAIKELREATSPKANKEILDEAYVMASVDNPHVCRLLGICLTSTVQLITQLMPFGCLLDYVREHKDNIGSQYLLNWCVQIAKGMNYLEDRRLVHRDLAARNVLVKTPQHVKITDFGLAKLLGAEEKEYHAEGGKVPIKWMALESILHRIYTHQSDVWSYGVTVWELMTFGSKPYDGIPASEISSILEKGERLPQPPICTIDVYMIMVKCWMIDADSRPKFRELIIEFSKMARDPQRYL

Row | SMILES | IC50 (EGFR kinase; given as bound) | IC50 (B-Raf kinase) | IC50 (C-Raf kinase) | IC50 (VEGFR2 kinase) | IC50 [1] | IC50 (B-Raf(V600E) kinase) | IC50 (EGFR kinase; class symbols)
1 | O=S(=O)(CCCF)Nc1ccc(F)c(Nc2ncnc3ccc(-c4cccnc4F)cc23)c1F [compound 44, N-(2,4-difluoro-3-(6-(2-fluoropyridin-3-yl)quinazolin-4-ylamino)phenyl)-3-fluoropropane-1-sulfonamide] | > 3000 nM | < 300 nM | < 300 nM | > 3000 nM | < 2000 nM | < 300 nM | –
2 | CCCS(=O)(=O)Nc1ccc(F)c(Nc2ncnc3ccc(-c4cccnc4Cl)cc23)c1F [compound 57, N-(3-(6-(2-chloropyridin-3-yl)-quinazolin-4-ylamino)-2,4-difluorophenyl)propane-1-sulfonamide] | > 3000 nM | < 300 nM | < 300 nM | > 3000 nM | < 2000 nM | < 300 nM | –
3 | CCCS(=O)(=O)Nc1ccc(F)c(Nc2ncnc3ccc(-c4ccc(OCCN(C)C)nc4)cc23)c1F [compound 35, N-(3-(6-(6-(2-(dimethylamino)ethoxy)-pyridin-3-yl)quinazolin-4-ylamino)-2,4-difluorophenyl)propane-1-sulfonamide] | – | < 300 nM | 1000 to 10000 nM | > 3000 nM | < 2000 nM | < 300 nM | 300 to 1000 nM
4 | CCCS(=O)(=O)Nc1ccc(F)c(Nc2ccnc3ccc(-c4cccnc4F)cc23)c1F [compound 13, N-(2,4-difluoro-3-(6-(2-fluoropyridin-3-yl)-quinolin-4-ylamino)phenyl)propane-1-sulfonamide] | > 3000 nM | < 300 nM | < 300 nM | > 3000 nM | < 2000 nM | < 300 nM | –
5 | O=S(=O)(Nc1ccc(F)c(Nc2ncnc3ccc(-c4cccnc4F)cc23)c1F)c1ccccc1 [compound 21, N-(2,4-difluoro-3-(6-(2-fluoropyridin-3-yl)quinazolin-4-ylamino)phenyl)benzenesulfonamide] | – | < 300 nM | < 300 nM | > 3000 nM | < 2000 nM | < 300 nM | 1000 to 3000 nM
6 | CCCS(=O)(=O)Nc1ccc(F)c(Nc2ncnc3ccc(-c4cccc(OCCOC)n4)cc23)c1F [compound 38, N-(2,4-difluoro-3-(6-(6-(2-methoxyethoxy)pyridin-2-yl)quinazolin-4-ylamino)phenyl)propane-1-sulfonamide] | – | < 300 nM | 300 to 1000 nM | > 3000 nM | < 2000 nM | < 300 nM | 1000 to 3000 nM
7 | CCCS(=O)(=O)Nc1ccc(F)c(Nc2ncnc3ccc(-c4cccnc4F)cc23)c1Cl [compound 9, N-(2-chloro-4-fluoro-3-(6-(2-fluoropyridin-3-yl)quinazolin-4-ylamino)phenyl)propane-1-sulfonamide] | – | 1000 to 10000 nM | 1000 to 10000 nM | – | – | 1000 to 10000 nM | –
8 | CCCS(=O)(=O)Nc1ccc(F)c(Nc2ncnc3ccc(-c4cn[nH]c4)cc23)c1F [compound 4, N-(3-(6-(1H-pyrazol-4-yl)quinazolin-4-ylamino)-2,4-difluorophenyl)propane-1-sulfonamide] | – | < 300 nM | < 300 nM | > 3000 nM | – | < 300 nM | 300 to 1000 nM
9 | CCCS(=O)(=O)Nc1ccc(F)c(C(=O)c2ncnc3ccc(-c4cccnc4F)cc23)c1F [compound 48, N-(2,4-difluoro-3-(6-(2-fluoropyridin-3-yl)quinazoline-4-carbonyl)phenyl)propane-1-sulfonamide] | > 3000 nM | < 300 nM | < 300 nM | > 3000 nM | – | < 300 nM | –
10 | CCCS(=O)(=O)Nc1ccc(F)c(Nc2ncnc3ccc(-c4cncc(C(F)(F)F)c4)cc23)c1F [compound 65, N-(2,4-difluoro-3-(6-(5-(trifluoromethyl)pyridin-3-yl)quinazolin-4-ylamino)phenyl)propane-1-sulfonamide] | – | 300 to 1000 nM | – | – | – | – | –
11 | CCCS(=O)(=O)Nc1ccc(F)c(Nc2ncnc3ccc(-c4cnc(N)c(C)c4)cc23)c1F [compound 67, N-(3-(6-(6-amino-5-methylpyridin-3-yl)quinazolin-4-ylamino)-2,4-difluorophenyl)propane-1-sulfonamide] | – | 300 to 1000 nM | – | – | – | – | –
12 | CCCS(=O)(=O)Nc1ccc(F)c(Nc2ncnc3ccc(-c4cnc(N(C)C)nc4)cc23)c1F [compound 51, N-(3-(6-(2-(dimethylamino)pyrimidin-5-yl)quinazolin-4-ylamino)-2,4-difluorophenyl)propane-1-sulfonamide] | – | 300 to 1000 nM | 1000 to 10000 nM | – | – | 300 to 1000 nM | –
13 | CCCS(=O)(=O)Nc1ccc(F)c(Nc2ncnc3ccc(-c4ccc(N(C)C)nc4)cc23)c1F [compound 54, N-(3-(6-(6-(dimethylamino)pyridin-3-yl)quinazolin-4-ylamino)-2,4-difluorophenyl)propane-1-sulfonamide] | – | 300 to 1000 nM | 300 to 1000 nM | – | – | 300 to 1000 nM | –

From patent publication US9321762B2, “Quinazoline compounds, method for preparing the same and use thereof” (DEVELOPMENT CENTER FOR BIOTECHNOLOGY, priority 2013, dated 2016)
